These molecules were tested against T1, MALT1 (Homo sapiens, UniProt Q9UDY8) (assay: MALT1 inhibition assay (MALT-1 Fluorogenic Peptide Cleavage Assay, Ac-LRSR-AMC substrate)). Conditions: Avi-tagged FL MALT-1, 30 min pre-incubation, 90 min reaction at room temperature, fluorescence intensity.
T1 construct: Avi-tagged FL MALT-1 (Pharmaron, stored at −70° C.); Avi-tag
T1 sequence (Q9UDY8 1-824): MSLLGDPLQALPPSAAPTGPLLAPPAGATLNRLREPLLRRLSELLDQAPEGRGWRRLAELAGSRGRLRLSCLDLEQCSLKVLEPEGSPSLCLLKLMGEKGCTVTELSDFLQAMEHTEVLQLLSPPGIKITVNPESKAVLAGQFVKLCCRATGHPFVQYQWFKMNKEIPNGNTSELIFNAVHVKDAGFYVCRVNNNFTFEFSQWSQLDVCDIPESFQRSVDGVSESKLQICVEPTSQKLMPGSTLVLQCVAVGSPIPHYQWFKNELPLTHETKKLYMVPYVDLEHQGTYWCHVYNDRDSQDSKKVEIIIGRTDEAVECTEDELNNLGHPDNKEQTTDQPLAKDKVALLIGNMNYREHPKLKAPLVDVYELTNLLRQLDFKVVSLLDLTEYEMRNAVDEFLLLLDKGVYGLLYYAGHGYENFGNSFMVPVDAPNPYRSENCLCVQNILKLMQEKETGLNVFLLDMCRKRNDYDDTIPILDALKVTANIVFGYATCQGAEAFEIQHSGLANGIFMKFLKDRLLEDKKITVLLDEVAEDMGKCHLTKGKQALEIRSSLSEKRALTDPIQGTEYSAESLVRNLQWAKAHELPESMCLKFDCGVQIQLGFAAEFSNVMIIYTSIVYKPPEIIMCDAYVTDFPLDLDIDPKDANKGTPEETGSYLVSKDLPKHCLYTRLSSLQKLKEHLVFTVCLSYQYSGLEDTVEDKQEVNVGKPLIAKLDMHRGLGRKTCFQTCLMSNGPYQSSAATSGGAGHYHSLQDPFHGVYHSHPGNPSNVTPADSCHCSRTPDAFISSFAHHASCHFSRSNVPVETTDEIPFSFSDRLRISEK
Assay type: biochemical
Method in brief: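 Full-length Avi-tagged MALT1 pre-incubated 30 min at room temperature with compounds (2% DMSO final) in HEPES pH 6.89, sodium citrate, TCEP, EDTA, CHAPS buffer. Ac-LRSR-AMC added from 50 µM (Km) or […] working stocks; 90 min at room temperature, AMC fluorescence (ex 342/em 441 nm); IC50 from % inhibition curves.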

IC50	Structure (SMILES)
2500 to 10000 nM	N#Cc1cc(NC(=O)c2c(C(F)(F)F)c(-c3ccccc3)nn2C2COC2)cnc1-n1nccn1 [Compound I-177]
> 10000 nM	O=C(Nc1ccnc(C(F)(F)F)c1)c1c(C(F)(F)F)c(-c2ccccc2)nn1C1COC1 [Compound I-178]
< 500 nM	O=C(Nc1cnc(-n2nccn2)c(Cl)c1)c1c(C(F)(F)F)c(-c2ccccc2)nn1C(F)F [Compound I-179, N-(5-chloro-6-(2H-1,2,3-triazol-2-yl)pyridin-3-yl)-1-(difluoromethyl)-3-phenyl-4-(trifluoromethyl)-1H-pyrazole-5-carboxamide]
< 500 nM	O=C(Nc1cnc(-n2nccn2)c(Cl)c1)c1nn(C(F)F)c(-c2ccccc2)c1C(F)(F)F [Compound I-180]
2500 to 10000 nM	O=C(Nc1cnc(-n2nccn2)c(Cl)c1)c1cc(-c2ccccc2)nn1C(F)F [Compound I-181]
> 10000 nM	O=C(Nc1cnc(-n2nccn2)c(Cl)c1)c1cc(-c2ccccc2)n(C(F)F)n1 [Compound I-182]
> 10000 nM	O=C1c2c(C(F)(F)F)c(-c3ccccc3)nn2CCCN1c1ccnc(C(F)(F)F)c1 [Compound I-183, 2-phenyl-3-(trifluoromethyl)-5-(2-(trifluoromethyl)pyridin-4-yl)-5,6,7,8-tetrahydro-4H-pyrazolo[1,5-a][1,4]diazepin-4-one]
> 10000 nM	O=C1c2c(C(F)(F)F)c(-c3ccccc3)nn2CCN1c1ccnc(C(F)(F)F)c1 [Compound I-184]
< 500 nM	CN(C)CCn1nc(-c2cccc3ccoc23)c(C(F)(F)F)c1C(=O)Nc1cnc(-n2nccn2)c(C#N)c1 [Compound I-186, 3-(benzofuran-7-yl)-N-(5-cyano-6-(2H-1,2,3-triazol-2-yl)pyridin-3-yl)-1-(2-(dimethylamino)ethyl)-4-(trifluoromethyl)-1H-pyrazole-5-carboxamide]
2500 to 10000 nM	Cn1nc(-c2cccc3c(=O)[nH]cnc23)c(C(F)(F)F)c1C(=O)Nc1ccnc(C(F)(F)F)c1 [Compound I-187, 1-methyl-3-(4-oxo-3,4-dihydroquinazolin-8-yl)-4-(trifluoromethyl)-N-(2-(trifluoromethyl)pyridin-4-yl)-1H-pyrazole-5-carboxamide]
< 500 nM	O=C(Nc1cnc(-n2nccn2)c(Cl)c1)c1nn2c(c1C(F)(F)F)-c1ccccc1CC2 [Compound I-188, N-(5-chloro-6-(2H-1,2,3-triazol-2-yl)pyridin-3-yl)-1-(trifluoromethyl)-5,6-dihydropyrazolo[5,1-a]isoquinoline-2-carboxamide]
< 500 nM	O=C(Nc1cnc(-n2nccn2)c(Cl)c1)c1c(C(F)(F)F)c(-c2ccccc2)nn1C1CC1 [Compound I-189, N-(5-chloro-6-(2H-1,2,3-triazol-2-yl)pyridin-3-yl)-1-cyclopropyl-3-phenyl-4-(trifluoromethyl)-1H-pyrazole-5-carboxamide]
500 to 2500 nM	O=C(Nc1cnc(-n2nccn2)c(C(F)(F)F)c1)c1c(C(F)(F)F)c(-c2ccccc2)nn1C1CC1 [Compound I-190]
500 to 2500 nM	O=C(Nc1cnc(-n2nccn2)c(Cl)c1)c1nn(C2CC2)c(-c2ccccc2)c1C(F)(F)F [Compound I-191]
500 to 2500 nM	O=C(Nc1ccnc(C(F)(F)F)c1)c1nn(C2CC2)c(-c2ccccc2)c1C(F)(F)F [Compound I-192]
500 to 2500 nM	Cn1nc(C(=O)c2ccccc2)c(C(F)(F)F)c1C(=O)Nc1ccnc(C(F)(F)F)c1 [Compound I-193, 3-benzoyl-1-methyl-4-(trifluoromethyl)-N-(2-(trifluoromethyl)pyridin-4-yl)-1H-pyrazole-5-carboxamide]
2500 to 10000 nM	Cn1nc(-c2cnc(CO)c3ccccc23)c(C(F)(F)F)c1C(=O)Nc1ccnc(C(F)(F)F)c1 [Compound I-194, 3-(1-(hydroxymethyl)isoquinolin-4-yl)-1-methyl-4-(trifluoromethyl)-N-(2-(trifluoromethyl)pyridin-4-yl)-1H-pyrazole-5-carboxamide]
> 10000 nM	Cn1nc(-c2cnc3ccccn23)c(C(F)(F)F)c1C(=O)Nc1ccnc(C(F)(F)F)c1 [Compound I-195, 3-(imidazo[1,2-a]pyridin-3-yl)-1-methyl-4-(trifluoromethyl)-N-(2-(trifluoromethyl)pyridin-4-yl)-1H-pyrazole-5-carboxamide]
500 to 2500 nM	Cn1nc(-c2ccc(F)c(N)n2)c(C(F)(F)F)c1C(=O)Nc1ccnc(C(F)(F)F)c1 [Compound I-196, 3-(6-amino-5-fluoropyridin-2-yl)-1-methyl-4-(trifluoromethyl)-N-(2-(trifluoromethyl)pyridin-4-yl)-1H-pyrazole-5-carboxamide]
> 10000 nM	Cn1nc(-c2cccc3c2CCNC3)c(C(F)(F)F)c1C(=O)Nc1ccnc(C(F)(F)F)c1 [Compound I-197]

IC50	Structure (SMILES)
< 500 nM	Cn1nc(-c2cc(N)ncc2Cl)c(C(F)(F)F)c1C(=O)Nc1ccnc(C(F)(F)F)c1 [Compound I-198]
2500 to 10000 nM	COc1c(-c2nn(C)c(C(=O)Nc3ccnc(C(F)(F)F)c3)c2C(F)(F)F)ccnc1N [Compound I-199]
> 10000 nM	Cn1nc(C2CCNCC2)c(C(F)(F)F)c1C(=O)Nc1ccnc(C(F)(F)F)c1 [Compound I-200]
> 10000 nM	Cn1nc(-c2n[nH]c3cnccc23)c(C(F)(F)F)c1C(=O)Nc1ccnc(C(F)(F)F)c1 [Compound I-201]
> 10000 nM	Cn1nc(-c2c[nH]c3ncncc23)c(C(F)(F)F)c1C(=O)Nc1ccnc(C(F)(F)F)c1 [Compound I-202, 1-methyl-3-(7H-pyrrolo[2,3-d]pyrimidin-5-yl)-4-(trifluoromethyl)-N-(2-(trifluoromethyl)pyridin-4-yl)-1H-pyrazole-5-carboxamide]
2500 to 10000 nM	Cn1nc(-c2ccccc2CC(F)(F)F)cc1C(=O)Nc1ccnc(C(F)(F)F)c1 [Compound I-203, 1-methyl-3-(2-(2,2,2-trifluoroethyl)phenyl)-N-(2-(trifluoromethyl)pyridin-4-yl)-1H-pyrazole-5-carboxamide]
2500 to 10000 nM	Cn1nc(C(=O)Nc2ccnc(C(F)(F)F)c2)c(C2CC2)c1-c1ccccc1 [Compound I-204, 4-cyclopropyl-1-methyl-5-phenyl-N-(2-(trifluoromethyl)pyridin-4-yl)-1H-pyrazole-3-carboxamide]
500 to 2500 nM	Cn1nc(-c2ccccc2)c(C2CC2)c1C(=O)Nc1ccnc(C(F)(F)F)c1 [Compound I-205]
500 to 2500 nM	Cn1nc(Oc2ccccc2)c(C(F)(F)F)c1C(=O)Nc1ccnc(C(F)(F)F)c1 [Compound I-206]
> 10000 nM	Cn1nc(-c2ccccc2)cc1C(=O)Nc1ccc(C(=O)N2CC(O)C2)c(Cl)c1 [Compound I-207]
2500 to 10000 nM	Cn1nc(COc2ccccc2)c(C(F)(F)F)c1C(=O)Nc1ccnc(C(F)(F)F)c1 [Compound I-208]
500 to 2500 nM	CN(c1ccccc1)c1nn(C)c(C(=O)Nc2ccnc(C(F)(F)F)c2)c1C(F)(F)F [Compound I-209]
< 500 nM	Cn1nc(-c2cccc3nscc23)c(C(F)(F)F)c1C(=O)Nc1ccnc(C(F)(F)F)c1 [Compound I-210, 3-(benzo[c]isothiazol-4-yl)-1-methyl-4-(trifluoromethyl)-N-(2-(trifluoromethyl)pyridin-4-yl)-1H-pyrazole-5-carboxamide]
2500 to 10000 nM	O=C(Nc1cnc(-n2nccn2)c(Cl)c1)c1c(C(F)(F)F)c(-c2ccccc2)nn1CCO [Compound I-211, N-(5-chloro-6-(2H-1,2,3-triazol-2-yl)pyridin-3-yl)-1-(2-hydroxyethyl)-3-phenyl-4-(trifluoromethyl)-1H-pyrazole-5-carboxamide]
2500 to 10000 nM	Cn1nc(-c2cccc3ncn(C)c23)c(C(F)(F)F)c1NC(=O)c1ccnc(C(F)(F)F)c1 [Compound I-221, N-(1-methyl-3-(1-methyl-1H-benzo[d]imidazol-7-yl)-4-(trifluoromethyl)-1H-pyrazol-5-yl)-2-(trifluoromethyl)isonicotinamide]
< 500 nM	Cn1nc(-c2cccc3nccn23)c(C(F)(F)F)c1C(=O)Nc1cnc(-n2nccn2)c(C(F)(F)F)c1 [Compound I-222]
500 to 2500 nM	Cc1ccc2ncsc2c1-c1nn(C)c(C(=O)Nc2ccnc(C(F)(F)F)c2)c1C(F)(F)F [Compound I-223]
500 to 2500 nM	Cn1nc(-c2cccc3cncn23)c(C(F)(F)F)c1C(=O)Nc1ccnc(C(F)(F)F)c1 [Compound I-224]
> 10000 nM	Cn1nc(-c2cnc3cnccn23)c(C(F)(F)F)c1C(=O)Nc1ccnc(C(F)(F)F)c1 [Compound I-225]
> 10000 nM	Cc1nc2cccc(-c3nn(C)c(C(=O)Nc4ccnc(C(F)(F)F)c4)c3C(F)(F)F)c2s1 [Compound I-226]
